Test results: ChEMBL document CHEMBL1133858, “BMS-196085: a potent and selective full agonist of the human beta(3) adrenergic receptor” (Bioorg Med Chem Lett, 2001)

Assays:
[1] = target: T1, Beta-3 adrenergic receptor (Homo sapiens, UniProt P13945); assay: Binding affinity to CHO cells expressing the cloned human beta-3 adrenergic receptor in the presence of [125I]iodocyanopindolol; assay type: cell-based
Target sequence in this assay (P13945 whole entry): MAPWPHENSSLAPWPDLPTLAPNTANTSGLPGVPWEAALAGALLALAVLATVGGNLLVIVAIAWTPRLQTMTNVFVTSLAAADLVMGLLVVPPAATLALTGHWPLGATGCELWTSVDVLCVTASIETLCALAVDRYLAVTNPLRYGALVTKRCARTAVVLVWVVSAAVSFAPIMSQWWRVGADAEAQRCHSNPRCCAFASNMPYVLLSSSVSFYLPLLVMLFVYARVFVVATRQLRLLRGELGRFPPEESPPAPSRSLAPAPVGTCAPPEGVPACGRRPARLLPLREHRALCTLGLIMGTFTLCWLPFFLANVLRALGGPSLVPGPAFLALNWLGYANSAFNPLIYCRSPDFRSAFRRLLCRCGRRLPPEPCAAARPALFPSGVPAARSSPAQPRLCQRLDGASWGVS

ADRB2+ADRB3 (+) = assay: Tested for binding selectivity to beta3 adrenoceptor versus beta2 adrenoceptor
ADRB1+ADRB3 (+) = assay: Tested for binding selectivity to beta3 adrenoceptor versus beta-1 adrenoceptor
[2] = target: T1, Beta-3 adrenergic receptor; assay: Agonist activity was assessed by measurement of cAMP accumulation levels in CHO membranes expressing human beta-3 receptor; assay type: functional, cell membranes
Target sequence in this assay (P13945 whole entry, looked up): as the sequence (P13945 whole entry) above

[3] = target: Beta-1 adrenergic receptor (Cavia porcellus) (UniProt B0FL73); assay: Beta1 receptor intrinsic activity is given as a percent of the maximal increase in the beating rate of an isolated spontaneously beating guinea pig atrium induced by isoproterenol; assay type: functional, tissue-based; settings: Cardiac atrium
Chain of Beta-1 adrenergic receptor (Cavia porcellus) (B0FL73 1-467): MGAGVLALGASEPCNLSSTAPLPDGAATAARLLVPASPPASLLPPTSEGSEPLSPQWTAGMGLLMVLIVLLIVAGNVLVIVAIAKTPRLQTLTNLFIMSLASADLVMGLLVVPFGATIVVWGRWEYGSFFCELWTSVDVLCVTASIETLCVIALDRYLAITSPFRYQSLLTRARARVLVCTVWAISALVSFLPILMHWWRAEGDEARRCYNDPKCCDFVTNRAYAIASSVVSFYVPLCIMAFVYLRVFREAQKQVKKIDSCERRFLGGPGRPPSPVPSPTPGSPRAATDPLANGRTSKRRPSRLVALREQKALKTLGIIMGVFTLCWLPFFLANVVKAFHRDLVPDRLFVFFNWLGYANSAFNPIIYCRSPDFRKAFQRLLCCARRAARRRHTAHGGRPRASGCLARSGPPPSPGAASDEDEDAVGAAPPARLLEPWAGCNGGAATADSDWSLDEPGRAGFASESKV

[4] = target: T1, Beta-3 adrenergic receptor; assay: Human beta-3 receptor agonist activity was assessed by measurement of cAMP accumulation levels in CHO cells expressing human beta-3 receptor; assay type: functional, cell-based
Target sequence in this assay (P13945 whole entry, looked up): as the sequence (P13945 whole entry) above

[5] = Dose that produced tachycardia in african green monkeys after iv administration; assay type: functional, Cercopithecidae
[6] = In vivo effective dose for lipolysis in african monkeys after iv administration; assay type: functional; settings: Cercopithecidae
[7] = Tested for lowest dose required to produce change in plasma potassium level divided by effective dose for lipolysis african green monkey 30 min after iv administration; assay type: functional, Cercopithecidae
[8] = Tested for Lowest dose required to produce tachycardia divided by effective dose for lipolysis african green monkey 30 min after iv administration; assay type: functional, Cercopithecidae
[9] = Tested for Lowest dose required to produce change in plasma potassium level divided by effective dose for lipolysis african green monkey 30 min after iv administration; assay type: functional, Cercopithecidae
[10] = Tested for volume of distribution upon iv administration to african green monkey; assay type: ADME, organism-based; settings: cercopithecidae, in vivo
[11] = Oral systemic bioavailability […] to african green monkey; assay type: ADME, organism-based; settings: cercopithecidae, in vivo, read-out: Bioavailabiility
[12] = Tested for Clearance upon iv administration to african green monkey; assay type: ADME, organism-based; settings: cercopithecidae, in vivo
[13] = Lowest dose required to produce statistically significant tachycardia divided by ED50 for lipolysis in african green monkeys after 30 min (iv); assay type: functional, Cercopithecidae
[14] = target: Beta-1 adrenergic receptor (Homo sapiens) (UniProt P08588); assay: Tested for Intrinsic activity (IA) against adenylate cyclase in CHO cells transfected with human beta-1 adrenoceptor; assay type: functional, cell-based
Chain of Beta-1 adrenergic receptor (Homo sapiens) (P08588 whole entry, looked up): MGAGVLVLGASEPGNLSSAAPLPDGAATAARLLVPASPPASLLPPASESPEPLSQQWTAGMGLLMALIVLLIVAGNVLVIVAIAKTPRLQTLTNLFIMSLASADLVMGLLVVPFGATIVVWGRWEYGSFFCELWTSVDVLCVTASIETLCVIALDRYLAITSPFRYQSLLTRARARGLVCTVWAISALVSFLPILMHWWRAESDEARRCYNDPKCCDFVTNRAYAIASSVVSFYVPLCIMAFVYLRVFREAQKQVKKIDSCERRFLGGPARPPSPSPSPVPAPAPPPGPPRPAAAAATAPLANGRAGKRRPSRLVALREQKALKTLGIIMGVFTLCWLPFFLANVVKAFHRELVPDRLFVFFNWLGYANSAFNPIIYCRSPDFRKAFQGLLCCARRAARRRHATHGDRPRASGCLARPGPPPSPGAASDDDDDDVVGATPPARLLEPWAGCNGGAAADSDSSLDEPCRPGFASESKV

Homo sapiens = organism: Homo sapiens; assay: Transdermal flux across human cadaver skin; assay type: functional
[15] = Tested for half life upon iv administration to african green monkey; assay type: ADME, organism-based; settings: cercopithecidae, in vivo
[16] = target: Beta-2 adrenergic receptor (Homo sapiens) (UniProt P07550); assay: Tested for Intrinsic activity (IA) against adenylate cyclase in CHO cells transfected with human beta-2 adrenoceptor; assay type: functional, cell-based
Chain of Beta-2 adrenergic receptor (Homo sapiens) (P07550 whole entry, looked up): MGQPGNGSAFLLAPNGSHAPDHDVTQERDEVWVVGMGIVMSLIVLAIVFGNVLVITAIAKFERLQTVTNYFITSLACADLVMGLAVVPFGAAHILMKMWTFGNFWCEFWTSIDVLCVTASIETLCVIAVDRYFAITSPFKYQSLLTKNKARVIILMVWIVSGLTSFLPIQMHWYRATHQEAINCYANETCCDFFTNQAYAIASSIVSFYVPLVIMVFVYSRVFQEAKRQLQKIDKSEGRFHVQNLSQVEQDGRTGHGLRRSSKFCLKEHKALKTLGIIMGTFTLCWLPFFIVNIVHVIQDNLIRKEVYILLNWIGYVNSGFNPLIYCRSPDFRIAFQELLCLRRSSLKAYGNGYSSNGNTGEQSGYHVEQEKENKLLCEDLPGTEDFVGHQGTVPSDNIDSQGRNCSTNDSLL

[17] = target: Beta-3 adrenergic receptor (Mus musculus, UniProt P25962); assay: Tested for binding affinity to murine Beta-3 adrenergic receptor
Chain of Beta-3 adrenergic receptor (Mus musculus, UniProt P25962) (P25962 whole entry): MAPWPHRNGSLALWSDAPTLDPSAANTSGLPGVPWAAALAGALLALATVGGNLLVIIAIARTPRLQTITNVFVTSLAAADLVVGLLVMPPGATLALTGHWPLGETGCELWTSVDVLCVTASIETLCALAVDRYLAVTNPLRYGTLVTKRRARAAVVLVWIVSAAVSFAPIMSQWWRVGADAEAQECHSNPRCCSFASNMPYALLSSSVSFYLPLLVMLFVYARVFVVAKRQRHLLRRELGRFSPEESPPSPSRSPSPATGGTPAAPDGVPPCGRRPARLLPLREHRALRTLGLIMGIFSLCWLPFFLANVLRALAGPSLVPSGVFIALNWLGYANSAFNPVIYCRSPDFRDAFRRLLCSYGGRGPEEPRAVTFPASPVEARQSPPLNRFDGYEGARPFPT

[18] = Lowest dose required to produce statistically significant hypokalemia divided by ED50 for lipolysis in african green monkeys after 30 min (iv); assay type: functional, Cercopithecidae

| SMILES | Ki [1] | Selectivity ratio (ADRB2+ADRB3 (+)) | Selectivity ratio (ADRB1+ADRB3 (+)) | Intrinsic activity [2] | other results |
| --- | --- | --- | --- | --- | --- |
| CS(=O)(=O)Nc1cc([C@@H](O)CNC(Cc2ccccc2)c2ccc(OCC(F)(F)F)cc2)ccc1O (stereo partly specified) | 84 nM | 1 | 83 | – | – |
| CS(=O)(=O)Nc1cc([C@@H](O)CNC(Cc2ccccc2)c2ccc(OC(F)(F)F)cc2)ccc1O (stereo partly specified) | 210 nM | 2 | 25 | – | – |
| CS(=O)(=O)Nc1cc([C@@H](O)CNC(Cc2ccccc2)c2ccc(Oc3ccccc3)cc2)ccc1O (stereo partly specified) | 990 nM | 0.5 | 4 | – | – |
| CS(=O)(=O)Nc1cc(C(O)CNC(Cc2ccccc2)c2ccsc2)ccc1O (stereo unspecified) | 129 nM | 0.3 | 1 | 110% | – |
| CS(=O)(=O)Nc1cc(C(O)CNC(Cc2ccccc2)c2ccc(F)cc2)ccc1O (stereo unspecified) | 836 nM | – | – | 100% | – |
| CS(=O)(=O)Nc1cc(C(O)CNC(Cc2ccccc2)c2ccncc2)ccc1O (stereo unspecified) | 700 nM | 8 | 30 | 129% | – |
| COC(=O)c1ccc([C@@H](Cc2ccccc2)NC[C@H](O)c2ccc(O)c(NS(C)(=O)=O)c2)cc1 | 85 nM | – | – | 98% | – |
| Cc1cc([C@@H](Cc2ccccc2)NC[C@H](O)c2ccc(O)c(NS(C)(=O)=O)c2)ccc1OC(F)F | 69 nM | – | – | – | – |
| CS(=O)(=O)Nc1cc(C(O)CNC(Cc2ccccc2)c2nccs2)ccc1O (stereo unspecified) | 2400 nM | 0.6 | 4 | 45% | – |
| CS(=O)(=O)Nc1cc([C@@H](O)CN[C@H](Cc2ccccc2)c2ccc(OC(F)F)c(OC(F)F)c2)ccc1O | 38 nM | 0.4 | 37 | – | – |
| COc1ccc([C@@H](Cc2ccccc2)NC[C@H](O)c2ccc(O)c(NS(C)(=O)=O)c2)cn1 | 25 nM | 30 | 180 | 101% | Activity [3]: 70% |
| CS(=O)(=O)Nc1cc(C(O)CNC(Cc2ccccc2)c2ccccc2)ccc1O (stereo unspecified) | 360 nM | 3 | 15 | – | Intrinsic activity [4]: 133% |
| CS(=O)(=O)Nc1cc([C@@H](O)CN[C@H](Cc2ccccc2)c2ccc3c(c2)OCO3)ccc1O | 8 nM | 8 | 52 | 94% | Activity [3]: 80%; Dose [5]: 0.1 mg/kg; ED50 [6]: 0.02 mg/kg; Margin before onset of hypokalemia [7]: 2; Margin before onset of tachycardia [8]: 1 |
| CS(=O)(=O)Nc1cc([C@@H](O)CN[C@H](Cc2ccccc2)c2ccc(C(=O)O)cc2)ccc1O | 8600 nM | 6 | 17 | 123% | – |
| CN(C)C(=O)c1ccc([C@@H](Cc2ccccc2)NC[C@H](O)c2ccc(O)c(NS(C)(=O)=O)c2)cc1 | 800 nM | 0.4 | 25 | 98% | – |
| C[C@](Cc1ccccc1)(NC[C@H](O)c1ccc(O)c(NS(C)(=O)=O)c1)c1ccc(OC(F)F)cc1 | 9 nM | 14 | 12 | – | – |
| CS(=O)(=O)Nc1cc(C(O)CNC(Cc2ccccc2)c2ccc(S(C)(=O)=O)cc2)ccc1O (stereo unspecified) | 440 nM | 3 | 53 | 129% | – |
| CS(=O)(=O)Nc1cc([C@@H](O)CN[C@H](Cc2ccccc2)c2ccc(C(=O)NO)cc2)ccc1O | 147 nM | 4 | 537 | 106% | – |
| CNC(=O)c1ccc([C@@H](Cc2ccccc2)NC[C@H](O)c2ccc(O)c(NS(C)(=O)=O)c2)cc1 | 120 nM | 3 | 79 | 102% | – |
| COc1ccc([C@@H](Cc2ccccc2)NC[C@H](O)c2ccc(O)c(NS(C)(=O)=O)c2)c(OC)n1 | 15 nM | – | – | 94% | Activity [3]: 60% |
| CS(=O)(=O)Nc1cc(C(O)CNC(Cc2ccccc2)c2ccc3sccc3c2)ccc1O (stereo unspecified) | 230 nM | 2 | 19 | 90% | – |
| CS(=O)(=O)Nc1cc([C@@H](O)CN[C@H](Cc2ccccc2)c2cccc3ccccc23)ccc1O | 43 nM | 6 | 33 | 105% | Activity [3]: 40%; ED50 [6]: 0.25 mg/kg; Margin before onset of hypokalemia [7]: 2; Margin before onset of tachycardia [8]: 2 |
| CS(=O)(=O)Nc1cc([C@@H](O)CN[C@H](Cc2ccccc2)c2ccc(CC(N)=O)cc2)ccc1O | 74 nM | 2 | 17 | 106% | – |
| CS(=O)(=O)Nc1cc([C@@H](O)CN[C@H](Cc2ccccc2)c2ccc(C(N)=O)cc2)ccc1O | 70 nM | – | – | 108% | – |
| CS(=O)(=O)Nc1cc([C@@H](O)CN[C@H](Cc2ccccc2)c2ccc(OC(F)F)c3ccccc23)ccc1O | 2 nM | 9 | 275 | 100% | Activity [3]: 23%; ED50 [6]: 0.25 mg/kg; Margin before onset of hypokalemia [9]: 2; Margin before onset of tachycardia [8]: 2 |
| CS(=O)(=O)Nc1cc([C@@H](O)CN[C@H](Cc2ccccc2)c2ccc(C#N)cc2)ccc1O | 210 nM | 4 | 30 | 107% | – |
| CS(=O)(=O)Nc1cc([C@@H](O)CN[C@H](Cc2ccccc2)c2ccc(OC(F)F)cc2)ccc1O | 21 nM | 5 | 36 | 95% | Activity [3]: 45%; Vd [10]: 10 L/kg; bioavailability [11]: 5%; clearance [12]: 36 mL/min/kg; Margin before onset of tachycardia [13]: 5; Intrinsic activity [14]: 63%; Activity (Homo sapiens): 12 ug cm**-2 hr-1; half-life [15]: 7.3 h; Intrinsic activity [16]: 45%; Ki [17]: 4000 nM; Dose [5]: 0.1 mg/kg; ED50 [6]: 0.02 mg/kg; Margin before onset of hypokalemia [18]: 25 |
| COc1ccc([C@@H](Cc2ccccc2)NC[C@H](O)c2ccc(O)c(NS(C)(=O)=O)c2)c2ccccc12 | 26 nM | 9 | 46 | 85% | Activity [3]: 22% |
| CS(=O)(=O)Nc1cc([C@@H](O)CNC(Cc2ccccc2)c2ccc(OCc3ccccc3)cc2)ccc1O (stereo partly specified) | 70 nM | – | – | – | – |
